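48-hour exposure; five concentrations; linearly interpolated endpoints. TGI denotes the concentration required for complete inhibition of growth.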
Experiments:
Assay in all cases: NCI tumour cell line growth inhibition, 48 h
[1] = tested on: 786-0 renal
[2] = tested on: A549 NSCLC
[3] = tested on: ACHN renal
[4] = tested on: CAKI-1 renal
[5] = tested on: CCRF-CEM leukemia
[6] = tested on: COLO 205 colon
[7] = tested on: DLD-1 colon
[8] = tested on: DMS 114 small cell lung
[9] = tested on: DMS 273 small cell lung
[10] = tested on: EKVX NSCLC
[11] = tested on: HCC-2998 colon
[12] = tested on: HCT-116 colon
[13] = tested on: HCT-15 colon
[14] = tested on: HL-60(TB) leukemia
[15] = tested on: HOP-18 NSCLC
[16] = tested on: HOP-62 NSCLC
[17] = tested on: HOP-92 NSCLC
[18] = tested on: HT29 colon
[19] = tested on: IGROV1 ovarian
[20] = tested on: K-562 leukemia
[21] = tested on: KM12 colon
[22] = tested on: KM20L2 colon
[23] = tested on: LOX IMVI melanoma
[24] = tested on: LXFL 529 NSCLC
[25] = tested on: M14 melanoma
[26] = tested on: M19-MEL melanoma
[27] = tested on: MALME-3M melanoma
[28] = tested on: MOLT-4 leukemia
[29] = tested on: NCI-H226 lung
[30] = tested on: NCI-H23 lung
[31] = tested on: NCI-H460 lung
[32] = tested on: OVCAR-3 ovarian
[33] = tested on: OVCAR-4 ovarian
[34] = tested on: OVCAR-5 ovarian
[35] = tested on: OVCAR-8 ovarian
[36] = tested on: RXF 393 renal
[37] = tested on: RXF-631 renal
[38] = tested on: SF-268 CNS
[39] = tested on: SF-295 CNS
[40] = tested on: SF-539 CNS
[41] = tested on: SK-MEL-2 melanoma
[42] = tested on: SK-MEL-28 melanoma
[43] = tested on: SK-MEL-5 melanoma
[44] = tested on: SK-OV-3 ovarian
[45] = tested on: SN12C renal
[46] = tested on: SNB-19 CNS
[47] = tested on: SNB-75 CNS
[48] = tested on: SNB-78 CNS
[49] = tested on: SR leukemia
[50] = tested on: SW-620 colon
[51] = tested on: TK-10 renal
[52] = tested on: U251 CNS
[53] = tested on: UACC-257 melanoma
[54] = tested on: UACC-62 melanoma
[55] = tested on: UO-31 renal
[56] = tested on: XF 498 CNS
[57] = tested on: A498 renal
[58] = tested on: MCF7 breast
[59] = tested on: NCI/ADR-RES ovarian
[60] = tested on: P388/ADR leukemia
[61] = tested on: NCI-H522 lung

O=c1nc2sc3ccc4ccccc4c3n2nc1-c1ccccc1
TGI [1]: 38 µM | TGI [2]: 94.5 µM | TGI [3]: 87.4 µM | TGI [4]: 73.9 µM | TGI [5]: > 100 µM | TGI [6]: > 100 µM | TGI [7]: > 100 µM | TGI [8]: > 100 µM | TGI [9]: > 100 µM | TGI [10]: > 100 µM | TGI [11]: > 100 µM | TGI [12]: 51.2 µM | TGI [13]: > 100 µM | TGI [14]: > 100 µM | TGI [15]: 93.7 µM | TGI [16]: 66.6 µM | TGI [17]: 50 µM | TGI [18]: > 100 µM | TGI [19]: 82.6 µM | TGI [20]: > 100 µM | TGI [21]: > 100 µM | TGI [22]: > 100 µM | TGI [23]: 28.4 µM | TGI [24]: > 100 µM | TGI [25]: > 100 µM | TGI [26]: > 100 µM | TGI [27]: 41.1 µM | TGI [28]: > 100 µM | TGI [29]: > 100 µM | TGI [30]: 87.5 µM | TGI [31]: 59.2 µM | TGI [32]: 40.4 µM | TGI [33]: 29.3 µM | TGI [34]: > 100 µM | TGI [35]: 42.2 µM | TGI [36]: 70.6 µM | TGI [37]: > 100 µM | TGI [38]: > 100 µM | TGI [39]: 33.3 µM | TGI [40]: 34.2 µM | TGI [41]: > 100 µM | TGI [42]: > 100 µM | TGI [43]: > 100 µM | TGI [44]: 95.1 µM | TGI [45]: 93.8 µM | TGI [46]: > 100 µM | TGI [47]: 46.9 µM | TGI [48]: > 100 µM | TGI [49]: > 100 µM | TGI [50]: > 100 µM | TGI [51]: 50.4 µM | TGI [52]: 38.2 µM | TGI [53]: > 100 µM | TGI [54]: > 100 µM | TGI [55]: 51.4 µM | TGI [56]: 70.2 µM

O=C1c2cccc3cc4ccccc4c(c23)C(=O)N1CCNCCNCCNCCN1C(=O)c2cccc3cc4ccccc4c(c23)C1=O
TGI [57]: 0.566 µM | TGI [2]: 1 µM | TGI [4]: 0.344 µM | TGI [5]: 0.637 µM | TGI [6]: 0.184 µM | TGI [7]: 0.344 µM | TGI [8]: 0.177 µM | TGI [9]: 0.159 µM | TGI [10]: 0.666 µM | TGI [11]: 0.0829 µM | TGI [12]: 1.11 µM | TGI [13]: 0.474 µM | TGI [14]: 0.212 µM | TGI [15]: 0.398 µM | TGI [17]: 0.254 µM | TGI [18]: 0.552 µM | TGI [19]: 1.22 µM | TGI [22]: 0.597 µM | TGI [23]: 0.155 µM | TGI [26]: 0.161 µM | TGI [27]: 0.78 µM | TGI [58]: 1.87 µM | TGI [28]: 0.212 µM | TGI [29]: > 100 µM | TGI [30]: 0.159 µM | TGI [31]: 0.0233 µM | TGI [59]: 1.53 µM | TGI [32]: 0.546 µM | TGI [33]: 0.314 µM | TGI [34]: 0.672 µM | TGI [35]: 0.735 µM | TGI [60]: 0.47 µM | TGI [36]: 0.0435 µM | TGI [38]: 0.197 µM | TGI [39]: 0.281 µM | TGI [40]: 0.288 µM | TGI [41]: 0.252 µM | TGI [42]: 0.324 µM | TGI [43]: 0.578 µM | TGI [45]: 1.41 µM | TGI [46]: 0.927 µM | TGI [47]: 0.106 µM | TGI [48]: 0.385 µM | TGI [50]: 0.308 µM | TGI [52]: 0.539 µM | TGI [53]: 0.767 µM | TGI [54]: 0.156 µM | TGI [55]: 0.36 µM | TGI [56]: 0.178 µM

Cc1ccnc(NS(=O)(=O)c2ccc(NC3=CC(=O)C(=O)c4ccccc43)cc2)n1
TGI [1]: > 100 µM | TGI [57]: > 100 µM | TGI [2]: > 100 µM | TGI [3]: > 100 µM | TGI [4]: > 100 µM | TGI [5]: > 100 µM | TGI [6]: > 100 µM | TGI [7]: > 100 µM | TGI [8]: > 100 µM | TGI [9]: > 100 µM | TGI [10]: > 100 µM | TGI [11]: > 100 µM | TGI [12]: > 100 µM | TGI [13]: > 100 µM | TGI [14]: > 100 µM | TGI [15]: > 100 µM | TGI [16]: > 100 µM | TGI [18]: > 100 µM | TGI [19]: > 100 µM | TGI [20]: > 100 µM | TGI [21]: > 100 µM | TGI [22]: > 100 µM | TGI [23]: > 100 µM | TGI [24]: > 100 µM | TGI [25]: > 100 µM | TGI [26]: > 100 µM | TGI [27]: > 100 µM | TGI [28]: > 100 µM | TGI [29]: > 100 µM | TGI [30]: > 100 µM | TGI [31]: > 100 µM | TGI [61]: > 100 µM | TGI [32]: > 100 µM | TGI [33]: > 100 µM | TGI [34]: > 100 µM | TGI [35]: > 100 µM | TGI [36]: > 100 µM | TGI [37]: > 100 µM | TGI [38]: > 100 µM | TGI [39]: > 100 µM | TGI [40]: > 100 µM | TGI [41]: > 100 µM | TGI [42]: > 100 µM | TGI [43]: > 100 µM | TGI [44]: > 100 µM | TGI [45]: > 100 µM | TGI [46]: > 100 µM | TGI [47]: > 100 µM | TGI [48]: > 100 µM | TGI [49]: > 100 µM | TGI [50]: > 100 µM | TGI [51]: > 100 µM | TGI [52]: > 100 µM | TGI [53]: > 100 µM | TGI [54]: > 100 µM | TGI [55]: > 100 µM | TGI [56]: > 100 µM
